# In US12545637B2, “Extrahepatic targeted cationic lipid compound with high efficiency and low toxicity and its composition” (BEIJING YOUCARE KECHUANG PHARMACEUTICAL TECHNOLOGY CO., LTD., priority 2023, dated 2026):
# Key:
# [1] = Detection of encapsulation efficiency, drug loading concentration and total RNA concentration (RiboGreen); type: physicochemical
# Method in brief: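 LNP samples were diluted in 1×TE to approximately […], then mixed with 1×TE and 0.1% Triton X-100 buffers. After 10 minutes at 37 °C, RiboGreen (1:200) was added and fluorescence read against an mRNA standard, giving encapsulation efficiency, drug loading concentration and total RNA concentration.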
# [2] = system: female BALB/C mice; experiment: In vivo imaging in mice of Fluc-mRNA LNP formulations (mRNA expression and duration)
# Method: The LNP formulation (prepared according to Example 4) containing […] Fluc-mRNA was injected intramuscularly into female BALB/C mice aged 4-6 weeks and weighed 17-19 g, and the mice were intraperitoneally injected with fluorescent imaging substrate at specific time points after administration (6h, 24 h, 48h and 7d), where the mice were allowed to free move for 5 minutes, and then the average radiation intensity (corresponding to fluorescence expression intensity) of the protein expression of the mRNA carried by the LNP in the mice was detected by the IVIS Spectrum small animal in vivo imaging system.
# [3] = LNP formulation prepared from the cationic lipid
structure (smiles),measurement,setting,value
"CCCCCCCCC(CCCCCCCC)OC(=O)CCCCCN(CCO)CCN(CCO)CCCCCC(=O)OC(CCCCCCCC)CCCCCCCC [YK-401, di(heptadecan-9-yl) 6,6′-(ethane-1,2-diyl-bis((2-hydroxyethyl)azanediyl))dihexanoate]",Drug loading concentration,[1]; [3],37.16 µg/mL
same,Encapsulation efficiency,[1]; [3],83.6%
same,Total RNA concentration,[1]; [3],41.71 µg/mL
same,encapsulation efficiency higher than ALC-0315,[1]; difference vs ALC-0315,20.3%
same,encapsulation efficiency higher than HIMA,[1]; difference vs HIMA (HHMA),23.4%
same,encapsulation efficiency higher than SM-102,[1]; difference vs SM-102,20.7%
same,encapsulation efficiency higher than YK-009,[1]; difference vs YK-009,20.2%
same,encapsulation efficiency higher than compound 21,[1]; difference vs compound 21,25.6%
same,encapsulation efficiency higher than compound 23,[1]; difference vs compound 23,27.4%
same,"drug loading concentration, times that of ALC-0315",[1]; ratio vs ALC-0315,1.38
same,"total RNA concentration, times that of ALC-0315",[1]; ratio vs ALC-0315,1.10
same,"drug loading concentration, times that of HIMA",[1]; ratio vs HIMA (HHMA),1.14
same,"total RNA concentration, times that of HIMA",[1]; ratio vs HIMA (HHMA),1.14
same,"drug loading concentration, times that of SM-102",[1]; ratio vs SM-102,1.40
same,"total RNA concentration, times that of SM-102",[1]; ratio vs SM-102,1.16
same,"drug loading concentration, times that of YK-009",[1]; ratio vs YK-009,1.35
same,"total RNA concentration, times that of YK-009",[1]; ratio vs YK-009,1.08
same,"drug loading concentration, times that of compound 21",[1]; ratio vs compound 21,1.69
same,"total RNA concentration, times that of compound 21",[1]; ratio vs compound 21,1.44
same,"drug loading concentration, times that of compound 23",[1]; ratio vs compound 23,1.86
same,"total RNA concentration, times that of compound 23",[1]; ratio vs compound 23,1.34
same,"average radiation intensity, times that of ALC-0315",[2]; 6 h,1.85
same,"average radiation intensity, times that of HHMA",[2]; 6 h,2.36
same,"average radiation intensity, times that of SM-102",[2]; 6 h,2.25
same,"average radiation intensity, times that of compound 21",[2]; 6 h,2.59
same,"average radiation intensity, times that of compound 23",[2]; 6 h,2.68
same,"expression amount in mice, times that of YK-415",[2]; 6 h,13.22
same,"expression amount in mice, times that of YK-417",[2]; 6 h,25.75
same,"mRNA expression in mice, times that of YK-411",[2]; 6 h,266.26
same,"average radiation intensity, times that of ALC-0315",[2]; 24 h,4.25
same,"average radiation intensity, times that of HHMA",[2]; 24 h,6.72
same,"average radiation intensity, times that of SM-102",[2]; 24 h,6.53
same,"average radiation intensity, times that of compound 21",[2]; 24 h,7.26
same,"average radiation intensity, times that of compound 23",[2]; 24 h,7.98
same,"expression amount in mice, times that of YK-415",[2]; 24 h,12.50
same,"expression amount in mice, times that of YK-417",[2]; 24 h,40.34
same,"mRNA expression in mice, times that of YK-411",[2]; 24 h,398.73
same,"average radiation intensity, times that of ALC-0315",[2]; 48 h,9.79
same,"average radiation intensity, times that of HHMA",[2]; 48 h,11.79
same,"average radiation intensity, times that of SM-102",[2]; 48 h,11.96
same,"average radiation intensity, times that of compound 21",[2]; 48 h,12.46
same,"average radiation intensity, times that of compound 23",[2]; 48 h,11.94
same,"expression amount in mice, times that of YK-415",[2]; 48 h,24.89
same,"expression amount in mice, times that of YK-417",[2]; 48 h,55.79
same,"mRNA expression in mice, times that of YK-411",[2]; 48 h,403.10
same,"average radiation intensity, times that of ALC-0315",[2]; 7 d,1.50
same,"average radiation intensity, times that of HHMA",[2]; 7 d,1.76
same,"average radiation intensity, times that of SM-102",[2]; 7 d,1.56
same,"average radiation intensity, times that of compound 21",[2]; 7 d,1.65
same,"average radiation intensity, times that of compound 23",[2]; 7 d,1.72
same,"expression amount in mice, times that of YK-415",[2]; 7 d,2.60
same,"expression amount in mice, times that of YK-417",[2]; 7 d,4.60
same,"mRNA expression in mice, times that of YK-411",[2]; 7 d,21.90
same,"average radiation intensity, 6 h","[2]; Fluc-mRNA LNP intramuscular, 6 h after administration",1557640
same,"average radiation intensity, 24 h","[2]; Fluc-mRNA LNP intramuscular, 24 h after administration",806240
same,"average radiation intensity, 48 h","[2]; Fluc-mRNA LNP intramuscular, 48 h after administration",393020
same,"average radiation intensity, 7 d","[2]; Fluc-mRNA LNP intramuscular, 7 d after administration",10512
